Assay: accelerated degradation studies (chemical stability, purity by HPLC)
Format: physicochemical
Description: Crystalline particles of Form S of the compound of formula (I) were obtained using the methods described in Example 5 above. Crystalline particles of Form A were also obtained, using the ethyl acetate-heptane crystallization system described in WO2010/071583. Samples of Form A and Form S were subject to accelerated degradation studies. Samples of each crystalline form were stored at varying combinations of temperature and relative humidity and analysed for purity by HPLC at 0, 14 and 28 days.

[1] = 60 °C, 30% relative humidity, Day 0
[2] = 60 °C, 30% relative humidity, Day 14
[3] = 60 °C, 30% relative humidity, Day 28
[4] = 60 °C, 75% relative humidity, Day 0
[5] = 60 °C, 75% relative humidity, Day 14
[6] = 60 °C, 75% relative humidity, Day 28
[7] = 70 °C, 11% relative humidity, Day 0
[8] = 70 °C, 11% relative humidity, Day 14
[9] = 70 °C, 11% relative humidity, Day 28
[10] = 70 °C, 75% relative humidity, Day 0
[11] = 70 °C, 75% relative humidity, Day 14
[12] = 70 °C, 75% relative humidity, Day 28
[13] = 80 °C, 30% relative humidity, Day 0
[14] = 80 °C, 30% relative humidity, Day 14
[15] = 80 °C, 30% relative humidity, Day 28

| Purity by HPLC [1] [%] | Purity by HPLC [2] [%] | Purity by HPLC [3] [%] | Purity by HPLC [4] [%] | Purity by HPLC [5] [%] | Purity by HPLC [6] [%] | Purity by HPLC [7] [%] | Purity by HPLC [8] [%] | Purity by HPLC [9] [%] | Purity by HPLC [10] [%] | Purity by HPLC [11] [%] | Purity by HPLC [12] [%] | Purity by HPLC [13] [%] | Purity by HPLC [14] [%] | Purity by HPLC [15] [%] | SMILES | degradation in accelerated degradation studies (under all the conditions that the samples were exposed to, Form S compared with Form A) |
| --- | --- | --- | --- | --- | --- | --- | --- | --- | --- | --- | --- | --- | --- | --- | --- | --- |
| 99.43 | 99.41 | 99.39 | 99.43 | 99.20 | 99.21 | 99.43 | 99.33 | 99.33 | 99.43 | 98.78 | 98.76 | 99.43 | 99.40 | 99.36 | CNCCOc1ccccc1C1(Nc2nccn(-c3cc(C(=O)NC4CC4)cc(F)c3C)c2=O)CC1 [Form A, N-cyclopropyl-3-fluoro-4-methyl-5-[3-[[1-[2-[2-(methylamino)ethoxy]phenyl]cyclopropyl]amino]-2-oxo-pyrazin-1-yl]benzamide, reference compound] |  |
| 99.77 | 99.77 | 99.77 | 99.77 | 99.64 | 99.63 | 99.77 | 99.77 | 99.77 | 99.77 | 99.77 | 99.77 | 99.77 | 99.77 | 99.78 | CNCCOc1ccccc1C1(Nc2nccn(-c3cc(C(=O)NC4CC4)cc(F)c3C)c2=O)CC1 [Form S, N-cyclopropyl-3-fluoro-4-methyl-5-[3-[[1-[2-[2-(methylamino)ethoxy]phenyl]cyclopropyl]amino]-2-oxo-pyrazin-1-yl]benzamide] | significantly less degradation than Form A |
